Results on 28 molecules are retold here after patent US11471428B2, “Method and pharmaceutical composition for treating depression” (ZHEJIANG UNIVERSITY, priority 2017, dated 2022).

Counter-ions that a name gives are not always drawn.

For data set [1] the following is noted: not told; cited from earlier work.
For the next data set, the system named is NMDAR. The note with it: cited from earlier work.
For the next data set, the system named is NMDARs. The data set is classed as cell-based. The note with it: NBQX, picrotoxin, 0 Mg2+.
Data set [2] deals with cLH rats. The data set is described as follows: Forced swim test (FST) after local bilateral infusion in LHb of cLH rats. The note with it: 1 ul each side. In kind it is in vivo, rat.
The test system of data set [3] is lateral habenular neurons. The experiment in a line: Hyperpolarization-triggered rebound bursts in LHb brain slices. The data set is classed as cell-based. The note with it: AP5 100 μM.
Data set [4] concerns spontaneously bursting LHb neurons. The experiment in a line: Spontaneous bursts of LHb neurons in brain slices, bath application. In kind it is cell-based.
Data set [5] relates to cLH rats. The experiment in a line: Sucrose preference test (SPT) after local bilateral infusion in LHb of cLH rats. In kind it is in vivo, rat. The note with it: 1 ul each side.
The next data set concerns the target AMPA receptor (AMPAR). The note with it: cited from earlier work.
The next data set has as its system silent LHb neurons. The data set is described as follows: NMDA perfusion-induced bursting in originally silent LHb neurons. The data set is classed as cell-based.
A further data set concerns C56BL/6 mice. The experiment in a line: Mouse forced swim test after i.p. administration. The data set is classed as in vivo. The note with it: 1 hour after administration.
Data set [6] deals with LHb neurons. The data set is described as follows: Whole cell patch recording of spontaneous activity of LHb neurons, cLH rat model. The note with it: LHb slices of cLH rats. The data set is classed as cell-based.
Data set [7] deals with LHb neurons. The experiment in a line: Whole cell patch recording of spontaneous activity of LHb neurons, CRS mouse model. The note with it: LHb slices of CRS mice. The data set is classed as cell-based.
The subject of data set [8] is LHb neurons. The data set is described as follows: In vivo multi-tetrode recording in the LHb of CRS mice. Set-up: species or system mouse.
Setting [9] is: ketamine 25 ug, 1 hr after infusion.
Where [10] appears, read: mibefradil 10 nmol, 1 hr after infusion.

Regarding `O=C(O)[C@@H]1C[C@H](CP(=O)(O)O)CCN1` (racemic) [Selfotel], in data set [1], the blood-brain barrier permeability result was “capable of crossing a blood-brain barrier or show at least certain level of blood-brain barrier permeability”.
`NC(CCCP(=O)(O)O)C(=O)O` (centres unmarked) [AP5]: in data set [1], the blood-brain barrier permeability result is “do not have blood-brain barrier permeability”. Besides, the IC50 with NMDAR was 30 µM. In addition, the “isolated NMDAR-currents (NMDAR-EPSCs)” value in the data set on NMDARs is on record as “abolished”. The “immobile time in the FST” value in the data set with cLH rats [2] (AP5 40 nmol, 0.5 h) was “efficiently reduced the immobile time”. Besides, the “probability of neuron hyperpolarization-induced burst” value in data set [3] is 0.12. Also, the spontaneous burst-firing entry in data set [4] (AP5 100 μM bath application) is on record as “stopped burst-firing”. Further, the “hedonic behaviors in the SPT” value with cLH rats [5] (AP5 40 nmol, 0.5 h) is listed as “increased hedonic behaviors”.
Turning to `NC(CCCCCP(=O)(O)O)C(=O)O` (centres unmarked) [AP7], in [1], the blood-brain barrier permeability result is “observed but at a low level”.
As for `N[C@@H](Cc1ccccn1)c1ccccc1` [AZD6765], the blood-brain barrier permeability result in data set [1] was “capable of crossing a blood-brain barrier or show at least certain level of blood-brain barrier permeability”.
Consider `NC12CC3CC(CC(C3)C1)C2` [Amantadine], for which the blood-brain barrier permeability entry in data set [1] is “capable of crossing a blood-brain barrier or show at least certain level of blood-brain barrier permeability”.
Turning to `CCc1cccc(N(C)C(N)=Nc2cccc3ccccc23)c1` [Aptiganel], the blood-brain barrier permeability result in [1] was “capable of crossing a blood-brain barrier or show at least certain level of blood-brain barrier permeability”.
Regarding `CNCC[C@@H](Oc1ccccc1C)c1ccccc1` [Atomoxetine], in data set [1], the blood-brain barrier permeability result was “capable of crossing a blood-brain barrier or show at least certain level of blood-brain barrier permeability”.
Turning to `O=C(O)C1CN(C/C=C/P(=O)(O)O)CCN1` (centres unmarked) [CPPene], in data set [1], the blood-brain barrier permeability entry is “capable of crossing a blood-brain barrier or show at least certain level of blood-brain barrier permeability”.
`COc1ccc2c(c1)[C@]13CCCC[C@@H]1[C@H](C2)N(C)CC3` [Dextromethorphan]: the blood-brain barrier permeability result in data set [1] was “capable of crossing a blood-brain barrier or show at least certain level of blood-brain barrier permeability”.
Turning to `NCC1(CC(=O)O)CCCCC1` [Gabapentin], the blood-brain barrier permeability entry in data set [1] is recorded as “do not have blood-brain barrier permeability”.
On to `CCCCCCC(C)(C)c1cc(O)c2c(c1)OC(C)(C)[C@H]1CC=C(CO)C[C@H]21` [HU-211], for which the blood-brain barrier permeability entry in [1] is “capable of crossing a blood-brain barrier or show at least certain level of blood-brain barrier permeability”.
On to `C/C=C1\[C@H]2C=C(C)C[C@]1(N)c1ccc(=O)[nH]c1C2` [Huperzine A], for which the blood-brain barrier permeability entry in [1] is “capable of crossing a blood-brain barrier or show at least certain level of blood-brain barrier permeability”.
Regarding `CC(C)(C)CCN1C[C@@H]2C(CNC(=O)c3cc(Cl)cc(Cl)c3)[C@@H]2C1` (some centres unmarked) [ML218], the blood-brain barrier permeability result in data set [1] is “shows at least some level of blood-brain barrier permeability”.
Regarding `NS(=O)(=O)c1cccc2c1c([N+](=O)[O-])cc1nc(O)c(O)nc12` [NBQX], at AMPA receptor (AMPAR), the IC50 was 0.15 µM. In addition, the spontaneous bursts result in data set [4] (NBQX 10 μM) was “reduced bursts, but to a much smaller extent than NMDAR blockade”.
Consider `CN[C@H](CC(=O)O)C(=O)O` [NMDA, N-methyl-D-aspartate], for which the “originally silent LHb neurons induced to strong bursting activity” value in the data set on silent LHb neurons (NMDA 20 μM, NBQX, picrotoxin, 0 Mg2+) is reported as 10 out of 13.
Take `CN[C@]12CCCC[C@H]1Cc1ccccc12` [PD-137889]: the blood-brain barrier permeability result in [1] was “capable of crossing a blood-brain barrier or show at least certain level of blood-brain barrier permeability”.
As to `CCN(c1ccccc1)c1cc(=NC)n(C)c(C)n1.Cl` [ZD7288], the “effect on spontaneous bursts” value in data set [4] (ZD7288 50 μM) is “significant but much smaller effect on bursts than mibefradil”.
Take `CC1(C)OC(=O)NC1=O` [dimethadione]: the blood-brain barrier permeability entry in data set [1] is given as “shows at least some level of blood-brain barrier permeability”.
Take `CCC1(C)CC(=O)NC1=O` (centres unmarked) [ethosuximide]: the blood-brain barrier permeability entry in [1] is “shows at least some level of blood-brain barrier permeability”. Further, the “effect in the forced swim test” value in the data set with C56BL/6 mice (ethosuximide 100 mg/kg i.p.) is given as “ineffective”.
Turning to `CNC1(c2ccccc2Cl)CCCCC1=O` (centres unmarked) [ketamine], the blood-brain barrier permeability entry in data set [1] was “capable of crossing a blood-brain barrier or show at least certain level of blood-brain barrier permeability”. Besides, in the data set on silent LHb neurons (additional bath application of 100 μM ketamine), the NMDA-induced bursting activity result was “blocked”. Moreover, the “increase of bursting neurons in cLH rat model” value in the data set with LHb neurons [6] is “reversed by ketamine”. Also, in the data set on cLH rats [2] (setting [9]), the “immobility time in the FST” value is on record as “sufficient to quickly rescue the depressive-like behaviors”. Moreover, in the data set with cLH rats [2] (ketamine 25 ug, 14 d), the “sustained antidepressant effect in FST” value is given as “sustained antidepressant effects for 14 days”. In the data set with LHb neurons [7], the “increase of bursting neurons in CRS mouse model” value is given as “reversed by ketamine”. Besides, the “LHb bursting activity in vivo” value with LHb neurons [8] (10 mg/kg, i.p., 1 h prior to recording, CRS mice) was “significantly suppressed”. In addition, the “cumulative frequency distributions of ISI” value in the data set with LHb neurons [8] (10 mg/kg, i.p., CRS mice) is recorded as “significantly shifted toward control level”. In the data set on LHb neurons [8] (1 hr after systemic injection, 10 mg/kg, i.p., CRS mice), the “LHb network synchronization (STA and SFC, theta band)” value is recorded as “reversed to control level”. The “50% percentile of ISI” value with LHb neurons [8] (CRS mice treated with ketamine (control 143 ms, CRS 33 ms)) is listed as 121 ms. Moreover, the “effect in the forced swim test” value in the data set on C56BL/6 mice (ketamine 2.5 mg/kg i.p.) was “ineffective”. For the same molecule, the “anhedonia, sucrose preference test” value in the data set with cLH rats [5] (setting [9]) was “sufficient to quickly rescue the depressive-like behaviors”. In addition, the “sustained antidepressant effect in SPT” value in the data set on cLH rats [5] (ketamine 25 ug, 14 d) is reported as “sustained antidepressant effects for 14 days”.
Take `O=C(O)c1cc(=O)c2ccccc2[nH]1` [kynurenic acid]: the blood-brain barrier permeability result in data set [1] was “capable of crossing a blood-brain barrier or show at least certain level of blood-brain barrier permeability”.
Regarding `CC12CC3CC(C)(C1)CC(N)(C3)C2` [memantine hydrochloride], in [1], the blood-brain barrier permeability result was “capable of crossing a blood-brain barrier or show at least certain level of blood-brain barrier permeability”.
For `CN1C(=O)CC(C)(c2ccccc2)C1=O` (centres unmarked) [methsuximide], the blood-brain barrier permeability entry in data set [1] was “shows at least some level of blood-brain barrier permeability”.
Consider `COCC(=O)O[C@]1(CCN(C)CCCc2nc3ccccc3[nH]2)CCc2cc(F)ccc2[C@@H]1C(C)C` [mibefradil], for which, in [1], the blood-brain barrier permeability entry was “has no blood-brain barrier permeability”. Besides, in the data set on cLH rats [2] (setting [10]), the “immobility in the FST” value was “quickly rescued the depressive-like behaviors”. Besides, the “anhedonia in the SPT” value in the data set on cLH rats [5] (setting [10]) is “quickly rescued the depressive-like behaviors”.
In the case of `O=C1NC(=O)C(c2ccccc2)(c2ccccc2)N1` [phenytoin], the blood-brain barrier permeability entry in [1] is on record as “shows at least some level of blood-brain barrier permeability”.
On to `CCCC(CCC)C(=O)[O-].[Na+]` [sodium valproate], for which the blood-brain barrier permeability entry in [1] is on record as “shows at least some level of blood-brain barrier permeability”.
In the case of `CN1C(=O)OC(C)(C)C1=O` [trimethadione], the blood-brain barrier permeability result in [1] is recorded as “shows at least some level of blood-brain barrier permeability”.
For `NS(=O)(=O)Cc1noc2ccccc12` [zonisamide], the blood-brain barrier permeability entry in [1] is “shows at least some level of blood-brain barrier permeability”.

As a reminder, the IC50 is the concentration at which inhibition is half-maximal.
